The values below come from ChEMBL document CHEMBL5113463, “Discovery and preclinical evaluations of JBD0131, a novel nitrodihydro-imidazooxazole anti-tuberculosis agent” (Bioorg Med Chem Lett, 2022).

In brackets after ≈: the same amount, converted by molar mass.

The nature of data set [1]: Cmax in Sprague-Dawley rat at 4 mg/kg, po. Type of data set: ADME, organism-based. Also on record: dose 4 mg/kg, route po. The settings on record: in vivo.
Data set [2] concerns Mycobacterium tuberculosis. Briefly: Antimycobacterial activity against Mycobacterium tuberculosis Erdman assessed as bacterial growth inhibition. Format: functional.
Data set [3] has as its target Cytochrome P450 2D6 (Homo sapiens, UniProt P10635). Briefly: Inhibition of CYP2D6 (unknown origin). Type of data set: ADME.
Data set [4] is described as follows: Drug distribution in Sprague-Dawley rat liver at 10 mg/kg, po administered as C14-lableled compound and assessed as radioactivity. Format: ADME, organism-based. To be noted: in vivo.
Data set [5] is described as follows: Volume of distribution in Beagle dog at 0.5 mg/kg, iv. Type of data set: ADME, organism-based, Canis lupus familiaris. The settings on record: in vivo.
The nature of data set [6]: Efflux ratio of apparent permeability across basolateral to apical over apical to basolateral membrane in dog MDCK cells. Format: ADME, cell-based, Canis lupus familiaris.
Data set [7] is described as follows: Oral bioavailability in CD-1 mouse at 5 mg/kg. Type of data set: ADME, organism-based. The settings on record: mouse, in vivo, po, 5 mg/kg.
The nature of data set [8]: Metabolic stability in mouse liver microsomes assessed as half life. Type of data set: ADME, Microsome. A general note: Liver microsomes are vesicles of endoplasmic reticulum, rich in cytochrome P450 enzymes.
Data set [9] can be described thus: Metabolic stability in human liver microsomes assessed as half life. Type of data set: ADME, Microsome.
A short description of data set [10]: Oral bioavailability in Sprague-Dawley rat at 4 mg/kg. Type of data set: ADME, organism-based. To be noted: in vivo.
Data set [11] deals with Mycobacterium tuberculosis. Briefly: Antimycobacterial activity against Mycobacterium tuberculosis H37Rv assessed as bacterial growth inhibition incubated for 7 days by MABA assay. Type of data set: functional. To be noted: 168 h, time 7 day.
A short description of data set [12]: Aqueous solubility of compound at pH 7.4. Format: physicochemical. The settings on record: buffer.
A short description of data set [13]: Apparent permeability across apical to basolateral side in dog MDCK cells. Type of data set: ADME, cell-based, Canis lupus familiaris.
The nature of data set [14]: AUC (0-last) in Sprague-Dawley rat at 4 mg/kg, po. To be noted: in vivo. Format: ADME, organism-based.
Data set [15] can be described thus: Cmax in Beagle dog at 2 mg/kg, po. The settings on record: in vivo. Further details: dose 2 mg/kg, route po; call rule not given here. Type of data set: ADME, organism-based, Canis lupus familiaris.
Data set [16] has as its target Cytochrome P450 2C19 (Homo sapiens, UniProt P33261). Briefly: Inhibition of CYP2C19 (unknown origin). Format: ADME.
Data set [17] deals with T1, A-type voltage-gated potassium channel KCND3 (Homo sapiens, UniProt Q9UK17).
T1 sequence (Q9UK17 whole entry): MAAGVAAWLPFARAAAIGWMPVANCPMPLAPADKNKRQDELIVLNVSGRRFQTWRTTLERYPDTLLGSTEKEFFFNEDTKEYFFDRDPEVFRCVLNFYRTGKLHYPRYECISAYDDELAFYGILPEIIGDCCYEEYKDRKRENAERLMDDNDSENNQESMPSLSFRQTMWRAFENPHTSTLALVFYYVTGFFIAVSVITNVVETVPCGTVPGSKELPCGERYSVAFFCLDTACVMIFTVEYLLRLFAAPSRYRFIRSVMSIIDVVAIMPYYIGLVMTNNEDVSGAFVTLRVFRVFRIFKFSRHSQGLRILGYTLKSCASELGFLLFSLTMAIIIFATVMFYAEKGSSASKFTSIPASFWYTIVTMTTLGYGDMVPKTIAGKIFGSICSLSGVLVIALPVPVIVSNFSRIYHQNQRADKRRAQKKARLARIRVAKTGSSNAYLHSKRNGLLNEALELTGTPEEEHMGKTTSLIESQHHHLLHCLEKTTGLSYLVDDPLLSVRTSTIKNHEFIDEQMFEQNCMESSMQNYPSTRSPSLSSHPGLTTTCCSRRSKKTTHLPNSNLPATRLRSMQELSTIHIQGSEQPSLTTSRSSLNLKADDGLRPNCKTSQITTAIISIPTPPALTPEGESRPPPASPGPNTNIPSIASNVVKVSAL
Put plainly: Inhibition of Kv4.3 (unknown origin).

Data set [18] has as its system Mycobacterium tuberculosis. Put plainly: Antimycobacterial activity against Mycobacterium tuberculosis H37Rv assessed as bacterial growth inhibition incubated for 10 days under hypoxic condition followed by 28 hrs incubation under normoxic condition by Low-Oxygen-Recovery Assay. Format: functional. The settings on record: 264 h, time 11 day.
Data set [19] can be described thus: Volume of distribution in CD-1 mouse at 0.6 mg/kg, iv. Type of data set: ADME, organism-based. The settings on record: in vivo.
A short description of data set [20]: Half life in CD-1 mouse at 0.6 mg/kg, iv. Type of data set: ADME, organism-based. To be noted: in vivo.
Data set [21] can be described thus: Apparent permeability across basolateral to apical side in dog MDCK cells. Format: ADME, cell-based, Canis lupus familiaris.
Data set [22] is described as follows: Cytotoxicity against African green monkey vero cells assessed as reduction in cell viability. Format: toxicity, cell-based. To be noted: chlorocebus sabaeus.
In data set [23] the target is Cytochrome P450 2C9 (Homo sapiens, UniProt P11712). Briefly: Inhibition of CYP2C9 (unknown origin). Format: ADME.
Sequence of Cytochrome P450 2C9 (P11712 whole entry): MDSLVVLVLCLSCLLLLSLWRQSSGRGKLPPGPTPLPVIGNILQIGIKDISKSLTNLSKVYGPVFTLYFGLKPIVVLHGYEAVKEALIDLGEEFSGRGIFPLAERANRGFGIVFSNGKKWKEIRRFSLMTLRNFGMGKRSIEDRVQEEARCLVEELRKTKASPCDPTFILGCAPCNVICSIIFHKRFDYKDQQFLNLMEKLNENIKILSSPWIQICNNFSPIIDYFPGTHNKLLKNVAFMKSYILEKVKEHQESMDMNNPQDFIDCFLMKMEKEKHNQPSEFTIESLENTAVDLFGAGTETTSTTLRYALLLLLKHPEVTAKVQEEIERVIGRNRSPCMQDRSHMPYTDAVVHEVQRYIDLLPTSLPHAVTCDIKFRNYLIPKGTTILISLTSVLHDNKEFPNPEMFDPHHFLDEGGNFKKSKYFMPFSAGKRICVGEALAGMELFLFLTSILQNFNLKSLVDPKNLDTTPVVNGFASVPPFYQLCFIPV
Data set [24] can be described thus: Drug distribution in Sprague-Dawley rat kidney at 10 mg/kg, po administered as C14-lableled compound and assessed as radioactivity. Type of data set: ADME, organism-based. To be noted: in vivo.

Sequence of Cytochrome P450 2D6 (P10635 whole entry): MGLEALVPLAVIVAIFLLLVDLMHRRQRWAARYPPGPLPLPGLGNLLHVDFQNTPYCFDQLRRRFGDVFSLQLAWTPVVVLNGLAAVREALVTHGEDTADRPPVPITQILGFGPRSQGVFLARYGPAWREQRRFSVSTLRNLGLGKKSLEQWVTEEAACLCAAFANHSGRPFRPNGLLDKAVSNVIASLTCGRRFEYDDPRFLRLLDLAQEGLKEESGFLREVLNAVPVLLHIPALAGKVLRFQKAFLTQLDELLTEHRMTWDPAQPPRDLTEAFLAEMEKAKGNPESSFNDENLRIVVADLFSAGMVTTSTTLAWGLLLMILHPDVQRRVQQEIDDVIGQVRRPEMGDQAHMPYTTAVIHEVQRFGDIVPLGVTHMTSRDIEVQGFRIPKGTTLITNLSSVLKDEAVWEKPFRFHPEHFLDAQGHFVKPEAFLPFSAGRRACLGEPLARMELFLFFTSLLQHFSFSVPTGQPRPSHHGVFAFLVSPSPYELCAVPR
Sequence of Cytochrome P450 2C19 (P33261 whole entry): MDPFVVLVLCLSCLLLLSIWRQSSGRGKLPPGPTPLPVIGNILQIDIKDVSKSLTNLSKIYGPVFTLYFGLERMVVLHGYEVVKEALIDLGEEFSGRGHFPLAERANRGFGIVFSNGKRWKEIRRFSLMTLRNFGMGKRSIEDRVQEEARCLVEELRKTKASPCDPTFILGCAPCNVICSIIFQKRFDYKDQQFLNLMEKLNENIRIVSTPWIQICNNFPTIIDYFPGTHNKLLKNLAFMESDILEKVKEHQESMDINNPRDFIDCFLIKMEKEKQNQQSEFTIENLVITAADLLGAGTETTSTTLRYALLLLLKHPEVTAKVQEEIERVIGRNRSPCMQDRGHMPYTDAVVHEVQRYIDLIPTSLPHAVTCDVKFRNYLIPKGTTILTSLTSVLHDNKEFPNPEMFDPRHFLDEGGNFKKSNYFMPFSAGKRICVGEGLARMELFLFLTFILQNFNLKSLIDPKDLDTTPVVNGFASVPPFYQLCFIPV

Usually Cmax stands for the maximum level reached in the sampled fluid or tissue. Usually MIC stands for the least concentration at which growth counts as inhibited. The IC50 is the concentration that inhibits the measured activity by half. In general, Vd refers to the apparent volume that relates the amount in the body to the concentration in plasma or blood. For orientation: efflux ratio means a quotient of directional permeabilities that is used to spot active efflux. In general, half-life refers to the time in which the quantity being followed falls by half. As usually defined, the bioavailability is dose-corrected exposure relative to a reference, in per cent. What is called solubility is how much of the substance goes into solution per volume. As usually defined, the Papp A→B is the apparent permeability from the apical to the basolateral side of a cell layer. In general, Papp B→A refers to how fast a substance crosses the layer from the basolateral side. For orientation: CC50 means the concentration at which the toxic effect on the cells reaches its halfway point. For `C[C@]1(CN2Cc3nc(-c4ccc(F)cc4)sc3C2)CN=C(N)O1`, the Cmax in [1] stood at 526 nM; in data set [15] it was 141 nM. Further, the MIC in data set [2] is 0.109 µg/mL (≈ 0.328 µM); in [11], 0.035 µg/mL (≈ 0.105 µM); in data set [18] it was 5.63 µg/mL (≈ 16.9 µM). In addition, the IC50 in data set [3] is 80.6 µM; in data set [16], above 100 µM; in data set [17], above 13.3 µM; in [23], above 100 µM. Besides, the Drug uptake result in data set [4] and in [24] was “Active” in each case. For the same molecule, the Vd in data set [5] is 4.52 L/kg; in data set [19], 2.69 L/kg. Also, the efflux ratio in [6] was 0.76. In data set [7], this molecule showed an F of 31.2%. Besides, the results for the half-life in [8], in [9] and in data set [20] were 1.05 h, 1.78 h and 3.25 h, respectively. The molecule further registered a bioavailability in data set [10] of 66.9%. This molecule came in with a solubility in data set [12] of 13.5 µM (≈ 4.49 µg/mL). Besides, in [13], the Papp A→B worked out at 20.9 ×10⁻⁶ cm/s. This molecule also showed an AUClast in data set [14] of 4520 ng·h. Further, the Papp B→A in data set [21] was 15.8 ×10⁻⁶ cm/s. Moreover, the CC50 in data set [22] was above 32 µg/mL.
